# According to patent publication US6762173B2 (priority 1997, dated 2004):
# Like-named read-outs stand apart in the source and are kept apart here.
# Experiments:
# Phytophthora infestans [1] = type: in vivo; conditions: potato Bintje, FIG. 4
# Phytophthora infestans [2] = type: in vivo; conditions: potato Bintje lamellae, preventive 4 days, FIG. 3
# Uncinula necator [3] = assay: In vivo greenhouse test against powdery mildew of grapevine, read 22 days after contamination (Example 11); conditions: FIG. 8
# Excerpt: (§1) In Vivo Greenhouse Test of a Composition Comprising Compound (I) and Compound (IIF) (Spiroxamine) Against Powdery Mildew of Grapevine (Uncinula necator):
# Example 10 is repeated, setting the compound (I)/spiroxamine ratio to 0.11:0.33 and 1 and observing the results 22 days after contamination.
# Plasmopara viticola [4] = assay: In vivo greenhouse test of ternary composition against downy mildew of grapevine, treatment 24 h after contamination (Example 12); conditions: grapevine Chardonnay, compound (I) alone, FIG. 9
# Botrytis cinerea = assay: In vivo greenhouse test against grey rot of grapevine (Example 8); conditions: FIG. 5
# Experimental: In Vivo Greenhouse Test of a Composition Comprising Compound (I) and Compound (IIC) (Cyprodinil) Against Grey Rot of Grapevine (Botrytis cinerea):
# (§2) A 70% dispersible granule of compound (I) and a 75% dispersible granule of cyprodinil are used.
# (§3) Dilute suspensions corresponding to a spraying volume of 1000 l of spraying liquid per ha are prepared from these compositions by dilution with water.
# These 2 liquids are mixed together so as to obtain a compound (I)/cyprodinil ratio equal to 0.2.
# Grapevine plants (Chardonnay variety) are cultivated in pots. When these plants are 2 months old, they are treated by spraying with a liquid comprising one of the compounds (I) and (IIC), either individually or as a mixture in the ratio indicated above.
# After 24 hours, leaves are cut off the treated plants, placed on moistened filter paper in a Petri dish and are contaminated by applying 10 drops of an aqueous suspension of spores (containing 150,000 sp/cm^3) of Botrytis cinerea. […]
# For this, the number of drops of Botrytis cinerea suspension from which a grey mark, corresponding to attack by the phytopathogenic fungus, developed is counted for a grapevine leaf. […]
# (§4) The efficacy of the treatment (expressed in %) is calculated according to the so-called Abbott formula. […]
# Plasmopara viticola [5] = assay: In vivo greenhouse test on downy mildew of grapevine, preventive treatment at 4 days (Example 5); conditions: grapevine Chardonnay, FIG. 2
# Experimental: In Vivo Greenhouse Test of the Combination of Compound (I) with Compound (IIA), Propamocarb, on Plasmopara viticola (Downy Mildew of Grapevine) by Preventive Treatment at 4 Days:
# A soluble concentrate containing 722 g/l of propamocarb and a 70% dispersible granule of compound (I) are used.
# Dilute suspensions corresponding to a spraying volume of 500 l of spraying liquid per ha are prepared from these compositions by dilution with water.
# These 2 liquids are mixed together so as to obtain a ratio: compound (I)/propamocarb, equal to: 0.015−0.125−0.5.
# Cuttings of grapevine (Vitis vinifera), Chardonnay variety, are cultivated in pots. When these plants are 2 months old, they are treated by spraying with the above liquids, taken individually or as a mixture.
# After 4 days, each plant is contaminated by spraying with an aqueous suspension of spores of Plasmopara viticola obtained from sporulated leaves contaminated 7 days beforehand. […]
# The results are read 7 days after the contamination, by comparison with the control plants, that is to say untreated but contaminated plants.
# The surface area of leaves showing a whitish appearance on their underside, corresponding to attack by the fungus, is assessed visually and the degree of attack is obtained by dividing by the total foliar surface.
# The efficacy is then calculated using the Abbott formula and using the result on the control plant. […]
# Alternaria brassicae = assay: In vivo greenhouse test against Alternaria rot in radish (Example 9); conditions: radish Pernot plantules, contamination 24 hours after treatment, FIG. 6
# Experimental: In Vivo Greenhouse Test of a Composition Comprising Compound (I) and Compound (IIC) (Cyprodinil) Against Alternaria Rot in Radish (Alternaria brassicae):
# as §2, §3
# These 2 liquids are mixed together so as to obtain a compound (I)/cyprodinil ratio equal to 0.2−0.5−1.
# Radish plantules (Pernot variety) are cultivated in pots. When these plantules have reached the 2-leaf cotyledon stage, they are treated by spraying with a liquid comprising compounds (I) and (IIC), either individually or as a mixture in the ratios indicated above.
# 24 hours after treatment, contamination is carried out by spraying with an aqueous suspension of spores (containing 40,000 sp/cm^3) of Alternaria brassicae.
# After this contamination, the treated and contaminated plantules are placed for 10 days at about 20° C. in an atmosphere of saturated humidity. […]
# For this, the percentage of attack of the cotyledon leaves by the fungus is assessed visually, the said attack being recognizable by brown necrosis marks. From the degree of attack thus obtained (expressed in %), the efficacy is calculated according to the Abbott formula with reference to the degree of attack of the control. […]
# Phytophthora infestans [6] = type: in vivo; conditions: potato Bintje, FIG. 1
# Uncinula necator [7] = assay: In vivo greenhouse test against powdery mildew of grapevine (Example 10); conditions: FIG. 7
# Experimental: as §1
# A suspension of 60 mg comprising compound (I) in a liquid mixture consisting of 0.3 ml of a surfactant (oleate of polyoxyethylenated derivative of sorbitan) diluted to 10% in water and 60 ml of water is prepared.
# An emulsifiable concentrate containing 500 g/l of spiroxamine is used.
# Dilute suspensions corresponding to a spraying volume of 250 l of spraying liquid per ha are prepared from these compositions by dilution with water.
# These 2 liquids are mixed together so as to obtain a compound (I)/spiroxamine ratio equal to 0.33:1:3.
# Grapevine plants (Chardonnay variety) are cultivated in pots. When these plants are 2 months old, they are treated by spraying with a liquid comprising one of the compounds (I) and (IIF), either individually or as a mixture in one of the ratios indicated above.
# After 24 hours, the grapevine leaves are contaminated by dusting them with powdery mildew spores (Uncinula necator) obtained from naturally contaminated leaves.
# After this contamination, the treated and contaminated grapevine plants are placed for 15 days at 20° C. at a relative humidity of about 70%. […]
# as §4
# [8] = contamination 4 days after treatment
compound,measurement,setting,value
"CSC(=O)c1cccc2nnsc12 [CGA 245704, S-methyl ester of 1,2,3-benzothiadiazole-7-carbothioic acid]",efficacy when applied alone,Phytophthora infestans [1]; under the test conditions,no efficacy
"CSC1=N[C@@](C)(c2ccccc2)C(=O)N1Nc1ccccc1 [compound (I), (4S)-4-methyl-2-methylthio-4-phenyl-1-phenyl-amino-2-imidazolin-5-one]",dose alone which needs to be applied to obtain 90% destruction of the parasite,Phytophthora infestans [2],8.7 mg/L
same,efficacy when applied alone,"Uncinula necator [3]; grapevine, under the test conditions, 22 days",no efficacy
same,dose alone which needs to be applied to obtain 70% destruction of the parasite,Plasmopara viticola [4],36 mg/L
same,efficacy when applied alone,"Botrytis cinerea; grapevine leaves, under the test conditions",no efficacy
same,dose alone which needs to be applied to destroy 70% of the parasite,Phytophthora infestans [1]; [8],177 mg/L
same,dose alone which needs to be applied to obtain 90% efficacy,Plasmopara viticola [5]; preventive 4 days,8.2 mg/L
same,dose alone which needs to be applied to obtain 70% destruction of the parasite,Alternaria brassicae,167 mg/L
same,dose alone which needs to be applied to destroy 70% of the parasite,Phytophthora infestans [6]; [8],36 mg/L
same,efficacy when applied alone,"Uncinula necator [7]; grapevine, under the test conditions",no efficacy
"Cc1cc(C2CC2)nc(Nc2ccccc2)n1 [cyprodinil, 2-phenylamino-4-cyclopropyl-6-methyl-pyrimidine]",dose alone which needs to be applied to destroy 90% of the parasite,"Botrytis cinerea; grapevine Chardonnay cut leaves, contamination 24 hours after treatment",73 mg/L
same,dose alone which needs to be applied to obtain 70% destruction of the parasite,Alternaria brassicae,178 mg/L
"CCCOC(=O)NCCCN(C)C [propamocarb, propyl 3-(dimethylamino)propyl carbamate]",dose alone which needs to be applied to obtain 90% destruction of the parasite,Phytophthora infestans [2],553 mg/L
same,efficacy when applied alone,Plasmopara viticola [5]; under the test conditions,no efficacy
O=C([O-])c1ccccc1O.[Na+] [sodium salt of salicylic acid],efficacy when applied alone,Phytophthora infestans [6]; under the test conditions,no efficacy
"CCCN(CC)CC1COC2(CCC(C(C)(C)C)CC2)O1 (centres unmarked) [spiroxamine, 8-t-butyl-2-(N-ethyl-N-n-propylamino)methyl-1,4-dioxaspiro[4.5]decane]",dose alone which needs to be applied to destroy 70% of the parasite,"Uncinula necator [3]; grapevine Chardonnay, read 22 days after contamination",61 g/ha
same,dose alone which needs to be applied to destroy 70% of the parasite,"Uncinula necator [7]; grapevine Chardonnay, read 15 days after contamination",6.6 g/ha
